What was measured:
Format in all cases: in vivo
[1] = test system: broadleaf weeds and sedges; test: small plot test in Arkansas, weedy rice plot (Example 1); details: Clincher SF alone, 15 fluid ounces/acre (0.279 pounds ai/acre)
Description: (§1) Note that the label recommended rate for Clincher® (cyhalofop) SF for controlling grasses in the 2-3 leaf stage is 13.5 fluid ounces/acre (0.251 pounds cyhalofop/acre).

[2] = test system: grasses; test: as above; details: Clincher SF alone, 15 fluid ounces/acre (0.279 pounds ai/acre); 2-3 leaf barnyard grass
Description: as §1

[3] = test system: broadleaf weeds and sedges; test: small plot test in Arkansas, weedy rice plot (Example 7); details: 12 days after application
Description: (§2) The chemical rates in pounds/acre were:
(§3) The following observations were made 12 days after application.

[4] = test system: barnyard grass and Sprangletop (two grass species); test: as above; details: cyhalofop alone, high labeled rate 0.279 pounds/acre; 12 days after application
Description: as §2, §3

[5] = test system: Barnyard grass; test: commercial field application by air in Arkansas, half a weedy rice field (Example 8); details: only propanil (Super Wham) at 4 pounds; 7 days after application
[6] = test system: Sprangletop; test: small plot test in Arkansas, weedy rice plot (Example 7); details: propanil applied alone, all rates (5, 4, 3 pounds/acre); 12 days after application; 1 to 6 inch Sprangletop
Description: as §2, §3

Row | Compound | control of the broadleaf weeds and sedges present at the time of application [1] | control of the grasses [2] | controlling broadleaf weeds and sedges ([3]; cyhalofop alone, high labeled rate 0.279 pounds/acre) | grass control [4] | barnyard grass control [5] | broadleaf and sedge control ([3]; all rates of propanil applied (5, 4, 3 pounds/acre)) | Sprangletop control [6]
1 | C[C@@H](Oc1ccc(Oc2ccc(C#N)cc2F)cc1)C(=O)O [cyhalofop] | 0% | controlled the grasses | weakness in controlling broadleaf weeds and sedges | excellent grass control | – | – | –
2 | CCC(=O)Nc1ccc(Cl)c(Cl)c1 [propanil] | – | – | – | – | poor barnyard grass control | excellent broadleaf and sedge control | lack of Sprangletop control

Source: patent US8211831B2, “Method to use a synergistic composition” (Riceco, LLC, priority 2005, dated 2012)
